Measured values: PubChem BioAssay AID330 (DTP/NCI, 2004)
Values joined by “and” are separate entries in the source; they are usually repeats but may differ in a detail not shown here. Equal values may be shown once. Toxic doses and inconclusive results are not listed.

System: P388 leukemia ip, CD2F1 mice, survival T/C
Test: NCI In Vivo Anticancer Drug Screen. Data for tumor model P388 Leukemia (intraperitoneal) in CD2F1 (CDF1) mice
Conditions: endpoint: median survival time, higher = longer survival
Procedure, shortened: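 Mice carrying the transplanted tumor received test compound or vehicle. Survival was recorded in each group, and the value is the treated-group measurement divided by that of the vehicle-treated control group.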

[1] = dose: 50.0 mg/kg/injection, schedule: Q01DX005 (ip), vehicle: Klucel (hydroxypropylcellulose) (HPC)
[2] = dose: 100.0 mg/kg/injection, schedule: Q01DX005 (ip), vehicle: Klucel (hydroxypropylcellulose) (HPC)
[3] = dose: 200.0 mg/kg/injection, schedule: Q01DX005 (ip), vehicle: Klucel (hydroxypropylcellulose) (HPC)
[4] = dose: 60.0 mg/kg/injection, schedule: Q01DX005 (ip), vehicle: Klucel (hydroxypropylcellulose) (HPC)
[5] = dose: 120.0 mg/kg/injection, schedule: Q01DX005 (ip), vehicle: Klucel (hydroxypropylcellulose) (HPC)
[6] = dose: 240.0 mg/kg/injection, schedule: Q01DX005 (ip), vehicle: Klucel (hydroxypropylcellulose) (HPC)
[7] = dose: 50.0 mg/kg/injection, schedule: Q01DX009 (ip), vehicle: Klucel (hydroxypropylcellulose) (HPC)
[8] = dose: 100.0 mg/kg/injection, schedule: Q01DX009 (ip), vehicle: Klucel (hydroxypropylcellulose) (HPC)
[9] = dose: 100.0 mg/kg/injection, schedule: Q01DX009 (ip), vehicle: saline
[10] = dose: 200.0 mg/kg/injection, schedule: Q01DX009 (ip), vehicle: saline
[11] = dose: 200.0 mg/kg/injection, schedule: Q01DX009 (ip), vehicle: Klucel (hydroxypropylcellulose) (HPC)
[12] = dose: 50.0 mg/kg/injection, schedule: Q01DX009 (ip), vehicle: saline
[13] = dose: 100.0 mg/kg/injection, schedule: Q01DX009 (ip), vehicle: saline with Tween-80
[14] = dose: 50.0 mg/kg/injection, schedule: Q01DX009 (ip), vehicle: saline with Tween-80
[15] = dose: 60.0 mg/kg/injection, schedule: Q01DX005 (ip), vehicle: saline with Tween-80
[16] = dose: 120.0 mg/kg/injection, schedule: Q01DX005 (ip), vehicle: saline with Tween-80
[17] = dose: 240.0 mg/kg/injection, schedule: Q01DX005 (ip), vehicle: saline with Tween-80
[18] = dose: 12.5 mg/kg/injection, schedule: Q01DX009 (ip), vehicle: saline with Tween-80
[19] = dose: 25.0 mg/kg/injection, schedule: Q01DX009 (ip), vehicle: saline with Tween-80

SMILES: CCO
- T/C (dose: 250.0 mg/kg/injection, schedule: Q01DX009 (ip), vehicle: saline with Tween-80): 95 % of control
- T/C (dose: 0.5 % in 0.5 ml injection vol, schedule: Q01DX009 (ip), vehicle: water): 94 % of control
- T/C (dose: 500.0 mg/kg/injection, schedule: Q01DX009 (ip), vehicle: saline with Tween-80): 90 % of control
- T/C (dose: 1.0 % in 0.5 ml injection vol, schedule: Q01DX009 (ip), vehicle: water): 92 % of control
- T/C (dose: 1000.0 mg/kg/injection, schedule: Q01DX009 (ip), vehicle: saline with Tween-80): 95 % of control
- T/C (dose: 2.0 % in 0.5 ml injection vol, schedule: Q01DX009 (ip), vehicle: water): 102 % of control and 94 % of control
- T/C (dose: 2000.0 mg/kg/injection, schedule: Q01DX009 (ip), vehicle: saline with Tween-80): 95 % of control
- T/C (dose: 4.0 % in 0.5 ml injection vol, schedule: Q01DX009 (ip), vehicle: water): 101 % of control and 106 % of control
- T/C (dose: 8.0 % in 0.5 ml injection vol, schedule: Q01DX009 (ip), vehicle: water): 100 % of control and 103 % of control
- T/C (dose: 16.0 % in 0.5 ml injection vol, schedule: Q01DX009 (ip), vehicle: water): 100 % of control

SMILES: N#Cc1c(-c2ccccc2)c(C#N)c(=O)n(N)c1N
- T/C [1]: 91 % of control and 93 % of control
- T/C [2]: 86 % of control
- T/C [3]: 86 % of control

SMILES: COc1ccc(C2OC3=C(Nc4ccccc4N3)C2=O)cc1 (stereo not drawn)
- T/C [4]: 97 % of control
- T/C [5]: 97 % of control
- T/C [6]: 98 % of control

SMILES: CN(C)CCCN1CCC2(CCCCC2)CC1
- T/C (dose: 50.0 mg/kg/injection, schedule: Q01DX005 (ip), vehicle: saline): 94 % of control
- T/C (dose: 100.0 mg/kg/injection, schedule: Q01DX005 (ip), vehicle: saline): 98 % of control
- T/C (dose: 200.0 mg/kg/injection, schedule: Q01DX005 (ip), vehicle: saline): 109 % of control

SMILES: C1CCC([Se][Se]C2CCCCC2)CC1
- T/C [7]: 103 % of control
- T/C [8]: 94 % of control

SMILES: CC(=O)Nc1ccc(S(=O)(=O)N/N=c2/sc3ccccc3n2C)cc1N
- T/C (dose: 6.25 mg/kg/injection, schedule: Q01DX009 (ip), vehicle: saline): 96 % of control
- T/C (dose: 12.5 mg/kg/injection, schedule: Q01DX009 (ip), vehicle: saline): 103 % of control
- T/C (dose: 25.0 mg/kg/injection, schedule: Q01DX009 (ip), vehicle: saline): 100 % of control
- T/C [9]: 88 % of control
- T/C [10]: 92 % of control

SMILES: O=C1CSC(=S)N1Cc1cccnc1
- T/C [7]: 100 % of control
- T/C [8]: 102 % of control
- T/C [11]: 106 % of control

SMILES: CC(C)CNCC(=O)Nc1ccc(-c2ccc(NC(=O)CNCC(C)C)cc2)cc1
- T/C [1]: 97 % of control
- T/C [2]: 97 % of control
- T/C [3]: 95 % of control

SMILES: COc1ccc(/C(C#N)=C\c2ccc(N(C)C)cc2)cc1
- T/C (dose: 50.0 mg/kg/injection, schedule: Q04DX003 (ip), vehicle: Klucel (hydroxypropylcellulose) (HPC)): 108 % of control
- T/C (dose: 100.0 mg/kg/injection, schedule: Q04DX003 (ip), vehicle: Klucel (hydroxypropylcellulose) (HPC)): 105 % of control
- T/C (dose: 200.0 mg/kg/injection, schedule: Q04DX003 (ip), vehicle: Klucel (hydroxypropylcellulose) (HPC)): 106 % of control
- T/C (dose: 400.0 mg/kg/injection, schedule: Q04DX003 (ip), vehicle: Klucel (hydroxypropylcellulose) (HPC)): 105 % of control

SMILES: CCOC(=O)C(C(=O)OCC)C(C)(C)C
- T/C [12]: 100 % of control
- T/C [9]: 102 % of control
- T/C [10]: 109 % of control
- T/C (dose: 400.0 mg/kg/injection, schedule: Q01DX009 (ip), vehicle: saline): 109 % of control

SMILES: CC1=C(C)C(=O)C(C(C)(C)CC(=O)Sc2ncnc3nc[nH]c23)=C(C)C1=O
- T/C (dose: 100.0 mg/kg/injection, schedule: Q04DX002 (ip), vehicle: saline with Tween-80): 97 % of control
- T/C (dose: 200.0 mg/kg/injection, schedule: Q04DX002 (ip), vehicle: saline with Tween-80): 99 % of control

SMILES: C=C(C(=O)O)C(=O)O
- T/C [12]: 105 % of control
- T/C (dose: 50.0 mg/kg/injection, schedule: Q04DX003 (ip), vehicle: saline): 115 % of control
- T/C [9]: 110 % of control
- T/C (dose: 100.0 mg/kg/injection, schedule: Q04DX003 (ip), vehicle: saline): 105 % of control
- T/C (dose: 200.0 mg/kg/injection, schedule: Q04DX003 (ip), vehicle: saline): 115 % of control

SMILES: O=C(c1ccccc1)C(C(c1ccccc1)N1CCOCC1)N1CCOCC1 (stereo not drawn)
- T/C [13]: 94 % of control
- T/C (dose: 200.0 mg/kg/injection, schedule: Q01DX009 (ip), vehicle: saline with Tween-80): 94 % of control
- T/C (dose: 400.0 mg/kg/injection, schedule: Q01DX009 (ip), vehicle: saline with Tween-80): 94 % of control

SMILES: Cc1cccc(C)c1NC1c2ccccc2C=Cc2ccccc21
- T/C [14]: 87 % of control
- T/C [13]: 89 % of control

SMILES: Nc1ccc(C(OC(=O)c2cc3ccccc3c(Cc3c(O)c(C(=O)OC(c4ccc(N)cc4)(c4ccc(N)cc4)c4ccc(N)cc4)cc4ccccc34)c2O)(c2ccc(N)cc2)c2ccc(N)cc2)cc1
- T/C (dose: 6.25 mg/kg/injection, schedule: Q01DX009 (ip), vehicle: saline with Tween-80): 117 % of control

SMILES: Cc1cc2c(cc1C)NC(=O)C(NC(=O)c1ccc(Cl)cc1)C=N2 (stereo not drawn)
- T/C [4]: 92 % of control
- T/C [5]: 93 % of control
- T/C [6]: 93 % of control

SMILES: CN1C(c2ccccc2)=C(C#N)C(=O)CC(c2ccc(Cl)cc2)N1C (stereo not drawn)
- T/C [15]: 102 % of control
- T/C [16]: 91 % of control
- T/C [17]: 101 % of control

SMILES: Clc1ccc2ccc3ccc(Cl)nc3c2n1
- T/C [15]: 92 % of control
- T/C [16]: 89 % of control
- T/C [17]: 92 % of control

SMILES: CN(C)C1CCc2ccc3ccccc3c2C1=O (stereo not drawn)
- T/C [1]: 98 % of control
- T/C [2]: 103 % of control

SMILES: CCCCOCN(COCCCC)c1ccc(C)cc1
- T/C [18]: 88 % of control
- T/C [19]: 104 % of control
- T/C [14]: 112 % of control

SMILES: O=C(O)CCc1nc(-c2ccccc2)ncc1C(=O)O
- T/C (dose: 100.0 mg/kg/injection, schedule: Q04DX003 (ip), vehicle: saline with Tween-80): 100 % of control
- T/C (dose: 200.0 mg/kg/injection, schedule: Q04DX003 (ip), vehicle: saline with Tween-80): 100 % of control
- T/C (dose: 400.0 mg/kg/injection, schedule: Q04DX003 (ip), vehicle: saline with Tween-80): 98 % of control

SMILES: CCOC(=O)C(Cc1ccc(N(CCCl)CCCl)cc1)NC(=O)CNC(C)=O (stereo not drawn)
- T/C (dose: 0.5 mg/kg/injection, schedule: Q04DX003 (ip), vehicle: saline with Tween-80): 113 % of control
- T/C (dose: 1.0 mg/kg/injection, schedule: Q04DX003 (ip), vehicle: saline with Tween-80): 104 % of control
- T/C [18]: 177 % of control
- T/C (dose: 12.5 mg/kg/injection, schedule: Q04DX003 (ip), vehicle: saline): 165 % of control
- T/C [19]: 268 % of control
- T/C (dose: 33.0 mg/kg/injection, schedule: Q04DX003 (ip), vehicle: saline with Tween-80): 113 % of control
- T/C (dose: 50.0 mg/kg/injection, schedule: Q04DX003 (ip), vehicle: saline with Tween-80): 90 % of control

SMILES: O=[N+]([O-])c1ccc(Sc2ncccn2)c([N+](=O)[O-])c1
- T/C (dose: 50.0 mg/kg/injection, schedule: Q01DX009 (ip), vehicle: suspension in saline): 103 % of control
- T/C (dose: 100.0 mg/kg/injection, schedule: Q01DX009 (ip), vehicle: suspension in saline): 88 % of control
- T/C (dose: 200.0 mg/kg/injection, schedule: Q01DX009 (ip), vehicle: suspension in saline): 91 % of control

SMILES: O=C1OC(c2ccccc2)Sc2ccccc21 (stereo not drawn)
- T/C [8]: 99 % of control
- T/C [11]: 95 % of control
- T/C (dose: 400.0 mg/kg/injection, schedule: Q01DX009 (ip), vehicle: Klucel (hydroxypropylcellulose) (HPC)): 92 % of control
